Here are results for 89 compounds from PubChem BioAssay AID1645848.

Values after ≈ are worked out from the molar mass of the structure shown.

Broadly, the kinetic solubility is the concentration staying in solution when a stock, usually in DMSO, is diluted into the medium.

The conditions of this data set: buffer; pH 7.4; 6.0 h; 150.0 µM.
On to `CC(C)c1c(-c2ccccc2)nc2c(C#N)c[nH]n2c1=O`, for which the kinetic solubility was more than 41 µg/mL.
The figure for `COc1ccccc1C(=O)N1CCc2cc(-c3nc(NC(=O)Cc4ccc5c(c4)OCO5)sc3C)ccc21` is less than 1 µg/mL; for `COc1ccc(C(=O)c2sc(Nc3cccc(Cl)c3)nc2N)cc1` it is less than 1 µg/mL; for `c1ccc(-c2cc(Nc3nc(-c4ccncc4)nc4ccccc34)n[nH]2)cc1` it is less than 1 µg/mL.
`O=C(Nc1nc(-c2ccc(F)cc2)cs1)c1ccncc1NS(=O)(=O)c1ccccc1Cl` returned a kinetic solubility of less than 1 µg/mL.
The figure for `CNC(=O)c1nn(C)c2c1C(C)(C)Cc1cnc(Nc3ccc(N4CCN(C)CC4)cc3)nc1-2` is more than 68 µg/mL; for `Cc1nc(Sc2nnnn2C)c2c(-c3ccccc3)csc2n1` it is 19.4 µg/mL (≈ 57.1 µM).
In turn, `COc1ccccc1-c1nc(NCc2cnc(C)cn2)c2ccccc2n1` displayed a kinetic solubility of more than 53 µg/mL.
The figure for `Cc1ccc(-c2[nH]n3c(=O)c4c(nc3c2C)CCCC4)cc1` is 1.03 µg/mL (≈ 3.52 µM); for `O=S(=O)(Nc1nccs1)c1ccc(NCc2cccc(F)c2O)cc1` it is more than 56 µg/mL; for `OC1(c2ccc(Cl)cc2)CCN(Cc2c[nH]c3ccccc23)CC1` it is more than 50 µg/mL.
The figure for `Nc1nc(Nc2ccc(S(N)(=O)=O)cc2)nn1C(=O)c1c(F)cccc1F` is 45.6 µg/mL (≈ 116 µM); for `O=C(c1ccc(C(=O)N2CCC(N3CCCC3)CC2)c(Nc2ccccc2)c1)N1CCC(N2CCCC2)CC1` it is 63.8 µg/mL (≈ 120 µM).
In the case of `NC(=O)C1CCN(c2nc(-c3cccs3)cs2)CC1`, the kinetic solubility is more than 43 µg/mL.
The figure for `CC[C@H](NC(=O)c1c(O)c(-c2ccccc2)nc2ccccc12)c1ccccc1` is 31.7 µg/mL (≈ 82.8 µM); for `Cc1ccc(-c2cc(C(=O)Nc3ccccn3)c3ccccc3n2)cc1` it is less than 1 µg/mL.
As to `NC(=O)C1CCN(c2nc(-c3cccc(C(F)(F)F)c3)cs2)CC1`, the kinetic solubility turned out to be 2.41 µg/mL (≈ 6.78 µM).
The figure for `COc1ccccc1CNc1ccc(S(=O)(=O)Nc2nccs2)cc1` is 37.4 µg/mL (≈ 99.7 µM); for `C[C@@]1(C(=O)Nc2ccc(F)nc2)CCCN1c1nc(Nc2cc(C3CC3)[nH]n2)c2cccn2n1` it is 31.1 µg/mL (≈ 67.4 µM).
The figure for `Cc1ccccc1C(=O)N1CCC(C(=O)N2CCC(N3Cc4ccccc4C3=O)CC2)CC1` is more than 44 µg/mL; for `O=C(NC1CCCCC1)N1Cc2[nH]cnc2C[C@H]1c1nc(-c2cccc([N+](=O)[O-])c2)no1` it is 14.2 µg/mL (≈ 32.5 µM); for `CCOC(=O)c1ccnc(CNCC(=O)N(CC)CCN(C)C)c1` it is more than 50 µg/mL.
For `COc1ccc(CCn2c(N)cc(=O)[nH]c2=S)cc1OC`, the kinetic solubility is more than 45 µg/mL.
In the case of `COC(=O)Nc1nc2ccc(SC(C)C)cc2[nH]1`, the solubility (kinetic) was less than 1 µg/mL.
The figure for `O=C(Nc1ncc(Cc2ccc(C(F)(F)F)cc2)s1)c1ccc(-c2ccccc2[N+](=O)[O-])o1` is less than 1 µg/mL.
As for `Cn1nnnc1SCCCNCc1cccc(OCc2ccccc2Cl)c1`, the figure is more than 60 µg/mL; as for `O=C(Nc1ccc(N2CCN(c3ncccc3C(F)(F)F)CC2)nc1)c1cccs1`, less than 1 µg/mL.
The figure for `Cc1ccccc1C(=O)n1ccc2cc(-c3nc(NC(=O)Cc4ccc5c(c4)OCO5)sc3C)ccc21` is less than 1 µg/mL; for `COc1c(O)ccc2c1CN1CCc3cc4c(cc3[C@@H]1C2)OCO4` it is 19.6 µg/mL (≈ 60.2 µM); for `Cn1ccc2c(C(=O)NCc3cccnc3)nc(-c3ccccc3C#N)cc21` it is less than 1 µg/mL.
With `COC(=O)CNC(=O)c1nc(-c2ccc(F)cc2)c2ccccn12`, the kinetic solubility is less than 1 µg/mL.
`CCOC(=O)c1ccc(-n2cnc3cc(C(=O)N4CCCCC4)ccc32)cc1` came in with a solubility (kinetic) of more than 56 µg/mL.
`CC(=O)NCCNC[C@@H]1C=C(C)[C@H](Cc2nnc(-c3ccccc3)o2)C[C@H]1C(C)C` registered a kinetic solubility of more than 61 µg/mL.
The figure for `Clc1cccc(-c2ccc(-c3nnc(CCCc4ccc5cccnc5n4)o3)cc2)c1` is less than 1 µg/mL; for `c1ccc2c(N3CCOCC3)nc(-c3ccncc3)nc2c1` it is more than 43 µg/mL.
As for `N#Cc1nc(-c2cccc3ccccc23)oc1NC1CNC1`, the figure is 9.62 µg/mL (≈ 33.1 µM); as for `Cc1ccc(-c2csc(NC(=O)c3ccncc3NS(=O)(=O)c3ccc(C)cc3)n2)cc1`, less than 1 µg/mL.
The figure for `O=C(Cc1ccc2ccccc2c1)Nc1ccc(S(=O)(=O)Nc2nccs2)cc1` is 0.228 µg/mL (≈ 0.538 µM); for `O=C1CCCC2=C1C(c1[nH]ncc1Cl)N=C(Nc1nc3c(Br)cccc3o1)N2` (centres undefined) it is less than 1 µg/mL.
In the case of `Cc1ccc(S(=O)(=O)Nc2ccc(C(=O)Nc3nc(-c4ccc(Cl)cc4)cs3)cc2)cc1`, the kinetic solubility is less than 1 µg/mL.
As for `CC[C@H]1CN(C)[C@H]2Cc3c([nH]c4ccccc34)C(=O)C[C@H]1[C@H]2C(=O)OC`, the figure is more than 52 µg/mL.
The figure for `COc1ccc(-c2nc(CS(=O)CC(=O)N3CCC4(CC3)OCCO4)c(C)o2)cc1` (centres undefined) is more than 64 µg/mL; for `COc1cc(/C=C(\C#N)C(=O)c2ccc(O)c(O)c2)cc(I)c1O` it is 50.3 µg/mL (≈ 115 µM).
As for `COc1ccc(-c2noc(CSc3nnc(Cc4ccccc4)n3-c3ccc(F)cc3)n2)cc1`, the figure is less than 1 µg/mL; as for `NC(=O)C1CCN(c2nc(-c3ccc4c(c3)CCO4)cs2)CC1`, more than 49 µg/mL.
As for `O=C1CCCC2=C1C(c1ccncc1Cl)N=C(Nc1nc3ccccc3o1)N2` (centres undefined), the solubility (kinetic) was found to be 8.82 µg/mL (≈ 22.4 µM).
As for `Fc1ccc(Nc2cc(-c3ccccc3)nc(-c3ccncc3)n2)cc1F`, the figure is less than 1 µg/mL.
The figure for `CCN(CC)CCCC(C)Nc1cc(/C=C/c2ccccc2Cl)nc2cc(Cl)ccc12` (centres undefined) is 25.4 µg/mL (≈ 55.7 µM).
As for `Cc1cc(-c2nnc3n2CCCCC3)c(C)n1-c1ccncc1`, the figure is 36 µg/mL (≈ 117 µM); as for `COc1cc(-c2ccnc3c2c(C)nn3-c2ccc(C(F)(F)F)cc2)ccc1O`, 28.1 µg/mL (≈ 70.4 µM); as for `O=C1Nc2cc(Cl)ccc2Nc2cscc21`, 9.92 µg/mL (≈ 39.6 µM).
`COc1ccc(Nc2nnc(-c3ccc(C)c(S(=O)(=O)NCc4nc5ccccc5[nH]4)c3)c3ccccc23)cc1`: the kinetic solubility is less than 1 µg/mL.
Turning to `NC(=O)C1CCN(c2nc(-c3ccc(N)cc3)cs2)CC1`, the solubility (kinetic) was more than 45 µg/mL.
The compound `CCOc1ccc(CCNC(=O)c2cc3ncccc3n2Cc2cccc(C)n2)cc1OCC` came in with a kinetic solubility of more than 68 µg/mL.
On to `NC(=O)c1ccc(-c2ncc3cnc(-c4cccc(F)c4)cn23)cc1`, for which the kinetic solubility was 10.9 µg/mL (≈ 32.8 µM).
Take `COc1ccc(OC)c(Nc2c3c(nc4ccccc24)CCC3)c1`: the solubility (kinetic) is more than 47 µg/mL.
`Cc1nc2sccn2c(=O)c1S(=O)(=O)Nc1ccc(N2CCN(C)CC2)cc1` came in with a solubility (kinetic) of more than 62 µg/mL.
The figure for `Fc1ccc(CN2CCNc3cc(Nc4ccccc4)ncc3C2)cc1F` is 45.3 µg/mL (≈ 124 µM); for `N#CC1CCN(c2nc(-c3ccc(Br)cc3)cs2)CC1` it is 1.46 µg/mL (≈ 4.19 µM); for `CC(C)COc1ccc(-c2csc(N3CCC(C(N)=O)CC3)n2)cc1` it is 2.68 µg/mL (≈ 7.45 µM).
For the compound `Cc1cc(-c2nnc3n2CCCCC3)c(C)n1-c1ccc(Cl)c(Cl)c1`, the solubility (kinetic) turned out to be 31.6 µg/mL (≈ 84.1 µM).
In turn, `COc1ccc(CNC(=O)c2cnc3ccccc3n2)cc1` had a kinetic solubility of 36.1 µg/mL (≈ 123 µM).
As for `COc1cccc(CNc2ccc([S+](=O)([O-])Nc3ccccc3)cc2)c1Cl`, the kinetic solubility was less than 1 µg/mL.
Regarding `CC(=O)N1CCc2c(sc3c2c(=O)n(-c2ccccc2)c(=O)n3Cc2cccc(C(F)(F)F)c2)C1`, the kinetic solubility came to 10 µg/mL (≈ 20.1 µM).
In turn, `CCCCN(CC)CCNC(=O)c1cc2c(-c3ccc(Cl)cc3)nn(C)c2s1` had a kinetic solubility of more than 62 µg/mL.
As to `NC(=O)C1CCN(c2nc(-c3cccc4ccccc34)cs2)CC1`, the solubility (kinetic) is 38.3 µg/mL (≈ 114 µM).
The figure for `CC(=O)c1c(C)c2cnc(Nc3ccc(N4CCNCC4)cn3)nc2n(C2CCCC2)c1=O` is 17.4 µg/mL (≈ 39 µM).
Consider `O=C(Nc1ccc(Nc2ccncc2)cc1)c1ccc(Nc2ccnc3ccc([N+](=O)[O-])cc23)cc1[N+](=O)[O-]`, for which the solubility (kinetic) is less than 1 µg/mL.
As for `C#Cc1ccc(NC(=O)c2cnn3c(C)cc(C)nc23)cc1`, the figure is less than 1 µg/mL.
As for `O=C(NCCCn1ccnc1)c1ccc(-c2ncc3cnc(-c4cccc(F)c4)cn23)cc1`, the figure is 32.5 µg/mL (≈ 73.9 µM); as for `N#Cc1cc(-c2nc(Nc3ccc(F)c(F)c3)c3ccccc3n2)ccn1`, less than 1 µg/mL.
As for `CC1=NN(c2ccc(C(=O)O)cc2)C(=O)/C1=C/c1ccc(-c2cc(C)c(C)cc2[N+](=O)[O-])o1`, the figure is 1.01 µg/mL (≈ 2.26 µM).
`CCn1nc(C2CCN(C(=O)CCO)CC2)nc1-c1cnc(N)c(-c2nnc(C(C)(C)C)o2)n1` yielded a kinetic solubility of more than 69 µg/mL.
The figure for `NC(=O)C1CCN(c2nc(-c3ccc4c(c3)OCCO4)cs2)CC1` is 34.6 µg/mL (≈ 100 µM); for `CN(C)c1cccc(-c2cnc(N3CCC(C(N)=O)CC3)nc2)c1` it is 34.9 µg/mL (≈ 107 µM).
As for `O=S(=O)(c1ccc2ccccc2c1)N1CCN(c2nc(-c3cccs3)nc3ccccc23)CC1`, the figure is less than 1 µg/mL; as for `Cc1ccc(S(=O)(=O)Nc2ccc(C(=O)Nc3nc(-c4ccccc4)cs3)c(Cl)c2)cc1`, less than 1 µg/mL.
`CCN1CCN(c2ccc(Nc3ccc(-c4ccc(C(N)=O)cc4)n4ncnc34)cc2)CC1`: the kinetic solubility was more than 65 µg/mL.
As to `NC(=O)C1CCN(c2ncc(-c3ccc4c(c3)OC(F)(F)O4)s2)CC1`, the solubility (kinetic) is less than 1 µg/mL.
Take `CCN(CC)S(=O)(=O)c1ccc(N2CCCC2)c(NS(=O)(=O)c2ccc(C)cc2)c1`: the solubility (kinetic) was 4.02 µg/mL (≈ 8.91 µM).
`CN1Cc2c(ccc3c2OCO3)[C@@H]2[C@H]1c1cc3c(cc1C[C@@H]2O)OCO3` came in with a solubility (kinetic) of more than 52 µg/mL.
The figure for `O=C(Cc1ccc(-c2csc(Nc3ccc(F)cc3)n2)s1)N1CCOCC1` is 2.31 µg/mL (≈ 5.73 µM); for `COc1cc(Nc2nc(-c3ccncc3)nc3ccccc23)ccc1F` it is less than 1 µg/mL; for `Cc1ccccc1C(=O)N1CCc2cc(N3CCC(NC(=O)Cc4ccccc4)C3)ccc21` (centres undefined) it is 5.59 µg/mL (≈ 12.7 µM).
The figure for `Cc1ccc(S(=O)(=O)Nc2ncccc2C(=O)Nc2nc(-c3ccccc3)cs2)cc1` is less than 1 µg/mL; for `CC1CCC(NC(=O)c2ccc3c(c2)N(Cc2ccccc2F)C(=O)c2ccccc2S3)CC1` (centres undefined) it is 1.06 µg/mL (≈ 2.24 µM).
As for `Cc1ccccc1C(=O)Nc1ccc2c(c1)CCCN2C(=O)c1cccs1`, the figure is 7.15 µg/mL (≈ 19 µM); as for `CN(Cc1ccccc1)C(=O)C1CCN(Cc2cccc3ccccc23)CC1`, more than 55 µg/mL; as for `COc1ccc(NC(=O)c2[nH]c(C)c(C(C)=O)c2C)cc1`, 35.3 µg/mL (≈ 123 µM).
